The values that follow come from patent US6573263B2, “Substituted imidazotriazinones” (Bayer Aktiengesellschaft, priority 2000, dated 2003).

Some results are limits rather than exact numbers.

One data set has as its system rats. Kind of data set: Object recognition test (memory test). Type of data set: in vivo. The conditions noted are these: rat, dose of 1.0 mg/kg of body weight p.o., 24 hours interval. The method, then: The object recognition test is a memory test. It measures the ability of rats (and mice) to differentiate between known and unknown objects and is therefore suitable for the determination of the memory-improving action of the compounds according to the invention.
The test is carried out as described (Blokland et al. NeuroReport 1998, 9, 4205-4208; Ennaceur, A., Delacour, J., Behav. Brain Res. 1988, 31, 47-59; Ennaceur, A., Meliani, K., Psychopharmacology 1992, 109, 321-330; Prickaerts, et al. Eur. J. Pharmacol. 1997, 337, 125-136).
In a first passage, a rat in an otherwise empty relatively large observation arena is confronted with two identical objects. The rat will extensively examine, i.e. sniff and touch, both objects. In a second passage, after an interval of 24 hours, the rat is again tested in the observation arena. One of the known objects is now replaced by a new, unknown object. When a rat recognizes the known object, it will especially examine the unknown object. After 24 hours, a rat, however, has normally forgotten which object it has already examined in the first passage, and will therefore inspect both objects equally intensively. The administration of a substance having learning- and memory-improving action will lead to a rat recognizing the object already seen 24 hours beforehand, in the first passage, as known. […]

Data set [1] relates to intracellular neuronal cGMP concentration in primary rat brain cell cultures. Kind of data set: Measurement of the increase in the intracellular neuronal cGMP concentration in cell cultures (SNP prestimulation). The conditions noted are these: parallel incubation of neurons with SNP, 37° C., 20 min. Type of data set: cell-based. The text has this:
PDE 2 inhibitors increase the intracellular neuronal cGMP concentration after prestimulation of the guanylate cyclase using 10^−4 M sodium nitroprusside (SNP) in primary rat brain cell cultures.
Rat embryos were decapitated and the heads were transferred to preparation dishes. The scalp and cranium were removed, and the exposed brains were transferred to a further Petri dish. With the aid of a binocular microscope and two pairs of forceps, hippocampi were isolated from the cortex and cooled to 4° C. using ice. This preparation and the isolation of the hippocampal neurons were then carried out according to a standard protocol using the papain dissociation system (Worthington Biochemical Corporation, Lakewood, N.J. 08701, USA) (Huettner et al. J. Neurosci. 1986, 6, 3044-3060). The mechanically isolated neurons were cultured under standard conditions (37° C., 5% CO2) to 150,000 cells/hole in 200 μl of neurobasal medium/hole (neurobasal; Gibco/BRL; 2 mM L-glutamine; in the presence of penicillin/streptomycin) for 7 days in 96-hole plates (pretreated with poly-D-lysine 100 μg/ml for 20 min). After 7 days, the medium was removed and the cells were washed with HBS buffer (Gibco/BRL). […] The cells were then lysed in 200 μl of lysis buffer (cGMP kit code RPN 226; from Amersham Pharmacia Biotech.) and the cGMP concentration was measured according to the instructions of the manufacturer. […]

The target of another data set is T1, PDE 2 (UniProt P14099).
T1 sequence (P14099 1-921): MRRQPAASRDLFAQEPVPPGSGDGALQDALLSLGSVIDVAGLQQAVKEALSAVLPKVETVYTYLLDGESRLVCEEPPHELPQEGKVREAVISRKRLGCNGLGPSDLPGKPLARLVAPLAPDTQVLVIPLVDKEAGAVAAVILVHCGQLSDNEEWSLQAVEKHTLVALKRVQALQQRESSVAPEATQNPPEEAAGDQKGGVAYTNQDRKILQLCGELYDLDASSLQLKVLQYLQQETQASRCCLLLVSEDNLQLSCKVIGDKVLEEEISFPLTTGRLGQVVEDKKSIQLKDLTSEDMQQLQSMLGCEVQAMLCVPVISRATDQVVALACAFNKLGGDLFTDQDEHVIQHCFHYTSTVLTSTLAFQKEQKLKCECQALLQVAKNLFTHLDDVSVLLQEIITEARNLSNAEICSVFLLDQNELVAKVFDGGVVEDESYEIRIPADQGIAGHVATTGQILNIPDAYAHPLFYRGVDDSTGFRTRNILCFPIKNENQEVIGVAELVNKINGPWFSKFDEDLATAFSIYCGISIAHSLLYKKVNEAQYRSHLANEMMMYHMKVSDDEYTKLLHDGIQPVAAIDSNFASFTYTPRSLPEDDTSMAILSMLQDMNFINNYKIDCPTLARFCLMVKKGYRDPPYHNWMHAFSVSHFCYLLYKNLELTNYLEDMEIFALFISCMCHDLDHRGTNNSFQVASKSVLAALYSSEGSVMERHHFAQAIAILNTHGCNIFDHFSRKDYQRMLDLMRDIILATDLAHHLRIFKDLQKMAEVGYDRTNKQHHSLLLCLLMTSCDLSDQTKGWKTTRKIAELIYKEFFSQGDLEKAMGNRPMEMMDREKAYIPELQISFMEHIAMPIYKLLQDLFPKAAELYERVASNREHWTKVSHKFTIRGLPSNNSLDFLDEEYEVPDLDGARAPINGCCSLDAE
As to the kind of experiment: Measurement of the PDE inhibition (PDE 2, [3H]-cAMP substrate, cGMP prestimulation). Type of data set: biochemical, porcine or bovine. The conditions noted are these: cGMP-stimulated PDE 2. The method, then: The cGMP-stimulable PDE (PDE 2), the cGMP-inhibitable PDE (PDE 3) and the cAMP-specific PDE (PDE 4) were isolated either from porcine or bovine heart myocardium. The Ca^2+ calmodulin-stimulable PDE 1 was isolated from porcine aorta, porcine brain or preferably from bovine aorta. The cGMP-specific PDE (PDE 5) was preferably obtained from porcine small intestine, porcine aorta, human blood platelets and preferably from bovine aorta. Purification was carried out by anion exchange chromatography on mono Q^R Pharmacia essentially according to the method of Hoey, M; Houslay, M. D., Biochem. Pharmacol. 1990, 40, 193-202 and Lugman et al. Biochem. Pharmacol. 1986, 35, 1743-1751.
The enzyme activity was determined in a test batch of 100 μl in 20 mM tris/HCl buffer pH 7.5 which contains 5 mM MgCl2, 0.1 mg/ml of bovine serum albumin and either 800 Bq of [^3H]-cAMP or [^3H]-cGMP. […] 100 μl of the reaction batch are separated on the HPLC and the cleavage products are determined quantitatively online using a flow-through scintillation counter. The substance concentration at which the reaction rate is decreased by 50% is measured. […]
Test substances were dissolved in 100% DMSO (10 mM), and this solution was further diluted with H2O (highest final concentration in the test: 10 μM). […] After the beads had settled (about 15 min), the plate was measured in a beta counter.

In the case of `COc1ccc(Cc2nn3c([C@@H](CCCc4ccccc4)[C@@H](C)O)nc(C)c3c(=O)[nH]2)cc1OC` (single isomer, unassigned) [Example 16], in the data set with rats, the “effect in the object recognition test” value is on record as “shows an effect”.
As to `COc1ccc(Cc2nn3c(C(CCCc4ccccc4)C(C)O)nc(C)c3c(=O)[nH]2)cc1OC` (stereo not shown) [Example 15, 2-(3,4-Dimethoxybenzyl)-7-[1-(1-hydroxyethyl)-4-phenylbutyl]-5-methylimidazo-[5,1-f][1,2,4]triazin-4(3H)-one], the “concentration from which a marked increase in the intracellular cGMP level was seen” value in data set [1] was not below 100 nM.
On to `COc1ccc(Cc2nn3c(C(CCCc4ccccc4)C(C)=O)nc(C)c3c(=O)[nH]2)cc1` (stereo not shown) [Example 2, 7-(1-Acetyl-4-phenylbutyl)-2-(4-methoxybenzyl)-5-methylimidazo[5,1-f][1,2,4]triazin-4(3H)-one], for which the melting point – broadly, the temperature, or range, at which the solid turns liquid – is 138 °C. At PDE 2, the IC50 (in general, the midpoint of a concentration-inhibition curve) came out at 10 nM.
